# Marks after values point to notes of the source that are not given here.
# Columns and labels:
# [1] = system: mAPP transfected N2a cells; assay: Cell viability / apoptotic cell death in mAPP transfected N2a cells; type: cell-based, mouse
# Method: (§1) The N2a cells grown for 6 days in a serum-free medium (1:1 mixture of DMEM and OptiMEM, plus penicillin and streptomycin (Invitrogen, Carlsbad, CA, USA) until the cells developed neuronal processes. As shown in (FIG. 10), these cells were used for 4 groups—one control group and 3 treatment groups. 1) untreated N2a cells (the control group), 2) N2a cells treated with ligand 1 (N2a+ligand 1), 3) N2a cells transfected mAPP with the (lipofectamine) (20 μM final concentration for 6 hrs (mAPP), 4) N2a cells transfected with mAPP cDNA for 6 hrs, treated with ligand 1 (mAPP+ligand 1 treatment group), N2a cells treated with ligand 1 for 24 hrs and then treated with the mAPP cDNA for 6 hrs (ligand 1+mAPP treatment group). As shown in (FIG. 10), the inventors performed 4 independent cell cultures and treatments for all experiments (n=4).
# Cell viability and apoptotic cell death MTT assay. Ligand 1 treated N2a cells, cell based apoptosis assay was performed using Cellometer Vision CBA Image Cytometry System (Nexcelom Bioscience LLC, Lawrence, MA) with two fluorophore Annexin V-FITC and Propidium Iodide (PI) staining solution, according to manufacturer's instructions. Briefly, cells were harvested using trypsin, then spin down at 300 g for three minutes and pellets were washed with 1×PBS, cells were counted using hematocytometer. […]
# [2] = system: N2a cells; assay: qRT-PCR mRNA expression in N2a cells treated with ligand 1; type: cell-based, mouse
# Method: as §1
# mRNA levels of mitochondrial dynamics and mitochondrial biogenesis and synaptic genes. Using the reagent TriZol (Invitrogen), the inventors isolated total RNA from 4 independent treatments of N2a cells (n=4) from control (untreated N2a cells) and experimental treatments (N2a cells treated with Ligand 1; N2a cells transfected with mAPP; N2a cells transfected with mAPP and then treated with Ligand 1. Using primer express Software (Applied Biosystems), the inventors designed the oligonucleotide primers for the housekeeping genes β-actin, GDPH; APP-related genes (APP, BACE1 and PSN1); mitochondrial structural genes; fission (Drp1 and Fis1); fusion genes (MFN1, MFN2, Opa1) (54), mitochondrial biogenesis genes (PGC1α, Nrf1, Nrf2, and Tfam) (Manczak et al., 2019), and synaptic proteins (SYN, PSD95 and MAP2). The primer sequences and amplicon sizes are listed in (Table 1). With SYBR-Green chemistry-based quantitative real-time RT-PCR, the inventors measured mRNA expression of the genes mentioned above as described by Manczak et al. 2019(54). Briefly, 2 μg of DNAse-treated total RNA was used as starting material, to which the inventors added 1 μl of oligo (dT), 1 μl of 10 mM dNTPs, 4 μl of 5× first strand buffer, 2 μl of 0.1 M DTT, and 1 μl RNAse outout. The reagents RNA, dT), and dNTPs were mixed first, then heated at 65° C. for 5 min, and finally chilled on ice until the remaining components were added. The samples were incubated at 42° C. for 2 min, and then 1 μl of Superscript II (40 U/μl) was added. The samples were then incubated at 42° C. for 50 min, at which time the reaction was inactivated by heating at 70° C. for 15 min.
# Quantitative real-time PCR amplification reactions were performed in N2a cells in an ABI Prism 7900 sequence detection system (Applied Biosystems, Foster City, CA) in a 25-μl volume of total reaction mixture. The reaction mixture consisted of 1×PCR buffer containing SYBR-Green; 3 mM MgCl2; 100 nm of each primer; 200 nm of dATP, dGTP, and dCTP each; 400 nm of dUTP; 0.01 U/μl of AmpErase UNG; and 0.05 U/μl of AmpliTaq Gold. A 20 ng cDNA template was added to each reaction mixture.
# The CT-values of β-actin was tested to determine the unregulated endogenous reference gene in N2a cells that were treated with Aβ and protective molecules, and in untreated N2a cells. In the latter case, the CT-value was similar in untreated and N2a cells treated with MTAs and Aβ. The CT-value is an important quantitative parameter in real-time PCR analysis as described in Gutala and Reddy (2004) (55). All RT-PCR reactions were carried out in triplicate, with no template control. The PCR conditions were: 50° C. for 2 min and 95° C. for 10 min, followed by 40 cycles of 95° C. for 15 sec and 60° C. for 1 min. The fluorescent spectra were recorded during the elongation phase of each PCR cycle. To distinguish specific amplicons from non-specific amplifications, a dissociation curve was generated. […]
# [3] = N2a + Ligand1 relative to untreated N2a cells
# [4] = N2a + Ligand1 relative to untreated N2a cells, negative = decrease
# [5] = ligand 1 treated N2a cells relative to untreated cells, size of the decrease
# [6] = ligand 1 treated N2a cells relative to untreated cells, size of the decrease, no statistical significance
substance,measurement,setting,value
"[(6As,8S,10aS,12aS)-10a, 12a-dimethyl-2-oxo-3,4,4a,4b,5,6,6a,7,8,9,10,10b,11,12-tetradecahydro-1H-naphtho[2,1-f]quinolin-8-yl] 4-[4-[bis(2-chloroethyl)amino]phenyl]butanoate [Ligand 1]",Apoptotic cell death,[1]; mAPP transfected cells,reduced
same,Cell viability,"[1]; mAPP+ligand 1 compared to mAPP cells, P=0.181",not significantly increased
same,mRNA fold change Mfn1,[2]; [3],1.1 fold
same,mRNA fold change Mfn2,[2]; [3],1.2 fold
same,mRNA fold change Nrf1,[2]; [3],1.2 fold
same,mRNA fold change Nrf2,[2]; [3],1.3 fold
same,mRNA fold change OPA1,[2]; [3],1.4 fold
same,mRNA fold change PSD95,[2]; [3],1.2 fold
same,mRNA fold change Synaptophysin,[2]; [3],1.4 fold
same,mRNA fold change TFAM,[2]; [3],1.2 fold
same,mRNA fold change PGC1a,"[2]; N2a + Ligand1 relative to untreated N2a cells, listed as Ligand1",1.6* fold
same,mRNA fold change PGC1a,"[2]; N2a + Ligand1 relative to untreated N2a cells, listed as ligand 1",1.6 fold
same,mRNA fold change APP,[2]; [4],−1.2 fold
same,mRNA fold change BACE1,[2]; [4],−1.8** fold
same,mRNA fold change Drp1,[2]; [4],−1.1 fold
same,mRNA fold change Fis1,[2]; [4],−1.1 fold
same,mRNA fold change Presenilin1,[2]; [4],−1.3 fold
same,"APP mRNA, fold decreased",[2]; [5],1.8 fold
same,"BACE1 mRNA, fold decreased",[2]; [5],1.2 fold
same,"PS1 mRNA, fold decreased",[2]; [5],1.3 fold
same,"Drp1 mRNA, fold reduced",[2]; [6],1.1 fold
same,"Fis1 mRNA, fold reduced",[2]; [6],1.1 fold
